# Assay results taken from the supplement of paper PMC11208160.
# Assay: recombinant barcode read abundance after kanamycin selection (control-corrected) (log10(CPM+1)); higher = more efficient recombination; sequences stand for … in AGTGCAGAGAAAATCGGCCAGTTTTCTCTGCCTGCAGTCCGCATGCCGT…ATTTATGCAGCGGACTGCCTTTCTCCCAAAGTGATAAACCGGACAGTATCATGGACCGGTTTTCCCGGTAATCCGTATTTGCAAGGTTGGTTTCACT; site = the 11-nt target
# Procedure, shortened: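 A promoter, a target, a barcode and the first 104 bridge RNA bases under J23119 made up each oligo. Oligos were Gibson-cloned into a vector bearing the other 73 bp and a T7-inducible recombinase, then co-electroporated into E. coli with a donor plasmid and plated in duplicate on chloramphenicol/ampicillin LB agar (control) or chloramphenicol/ampicillin/kanamycin with 0.1 mM IPTG. Recombination efficiency is the averaged, control-corrected counts per million of recombinant-junction barcodes. Reported values are log10(CPM+1).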
row,Sequence,recombinant barcode read abundance (log10)
1,"GAGGCCTCTTGGGTTCTAACCTGTTGCCAAC [GAGGCCTCTTG_LTGcore_CT_RTGcore_GT] (site GAGGCCTCTTG) (LTG core: CT, RTG core: GT)",1.25
2,"GAGGCCTCTTGGGTTCTAACCTGTTGCCAGA [GAGGCCTCTTG_LTGcore_CT_RTGcore_TC] (site GAGGCCTCTTG) (LTG core: CT, RTG core: TC)",0.245
3,"GAGGCCTCTTGGGTTCTAACCTGTTGCCATG [GAGGCCTCTTG_LTGcore_CT_RTGcore_CA] (site GAGGCCTCTTG) (LTG core: CT, RTG core: CA)",0.0789
4,"GAGGCCTGGTGGGTTCTAACCTGTTGCCAAG [GAGGCCTCTTG_LTGcore_GG_RTGcore_CT] (site GAGGCCTCTTG) (LTG core: GG, RTG core: CT)",0.103
5,"GAGGCCTGGTGGGTTCTAACCTGTTGCCACC [GAGGCCTCTTG_LTGcore_GG_RTGcore_GG] (site GAGGCCTCTTG) (LTG core: GG, RTG core: GG)",0.445
6,"GAGTCCAAATGGGTTCTAACCTGTTGCGTTT [GAGTCCACTAC_LTGcore_AA_RTGcore_AA] (site GAGTCCACTAC) (LTG core: AA, RTG core: AA)",0.0227
7,"GAGTCCAACTGGGTTCTAACCTGTTGCGTGT [GAGTCCACTAC_LTGcore_AC_RTGcore_AC] (site GAGTCCACTAC) (LTG core: AC, RTG core: AC)",0.0932
8,"GAGTCCAATTGGGTTCTAACCTGTTGCGTAG [GAGTCCACTAC_LTGcore_AT_RTGcore_CT] (site GAGTCCACTAC) (LTG core: AT, RTG core: CT)",0.156
9,"GAGTCCACCTGGGTTCTAACCTGTTGCGTGG [GAGTCCACTAC_LTGcore_CC_RTGcore_CC] (site GAGTCCACTAC) (LTG core: CC, RTG core: CC)",0.0684
10,"GAGTCCACGTGGGTTCTAACCTGTTGCGTAG [GAGTCCACTAC_LTGcore_CG_RTGcore_CT] (site GAGTCCACTAC) (LTG core: CG, RTG core: CT)",0.114
11,"GAGTCCACTTGGGTTCTAACCTGTTGCGTAT [GAGTCCACTAC_LTGcore_CT_RTGcore_AT] (site GAGTCCACTAC) (LTG core: CT, RTG core: AT)",0.389
12,"GAGTCCACTTGGGTTCTAACCTGTTGCGTCG [GAGTCCACTAC_LTGcore_CT_RTGcore_CG] (site GAGTCCACTAC) (LTG core: CT, RTG core: CG)",0.702
13,"GAGTCCAGCTGGGTTCTAACCTGTTGCGTAG [GAGTCCACTAC_LTGcore_GC_RTGcore_CT] (site GAGTCCACTAC) (LTG core: GC, RTG core: CT)",0.0179
14,"GAGTCCAGTTGGGTTCTAACCTGTTGCGTAG [GAGTCCACTAC_LTGcore_GT_RTGcore_CT] (site GAGTCCACTAC) (LTG core: GT, RTG core: CT)",0.283
15,"GAGTCCATTTGGGTTCTAACCTGTTGCGTAA [GAGTCCACTAC_LTGcore_TT_RTGcore_TT] (site GAGTCCACTAC) (LTG core: TT, RTG core: TT)",0.0342
16,"GAGTCCTACTGGGTTCTAACCTGTTGCCTAG [GAGTCCTCTAG_LTGcore_AC_RTGcore_CT] (site GAGTCCTCTAG) (LTG core: AC, RTG core: CT)",0.674
17,"GAGTCCTACTGGGTTCTAACCTGTTGCCTGT [GAGTCCTCTAG_LTGcore_AC_RTGcore_AC] (site GAGTCCTCTAG) (LTG core: AC, RTG core: AC)",0.011
18,"GAGTCCTAGTGGGTTCTAACCTGTTGCCTAG [GAGTCCTCTAG_LTGcore_AG_RTGcore_CT] (site GAGTCCTCTAG) (LTG core: AG, RTG core: CT)",0.445
19,"GAGTCCTCATGGGTTCTAACCTGTTGCCTAG [GAGTCCTCTAG_LTGcore_CA_RTGcore_CT] (site GAGTCCTCTAG) (LTG core: CA, RTG core: CT)",1.08
20,"GAGTCCTCCTGGGTTCTAACCTGTTGCCTGG [GAGTCCTCTAG_LTGcore_CC_RTGcore_CC] (site GAGTCCTCTAG) (LTG core: CC, RTG core: CC)",0.561
21,"GAGTCCTCTTGGGTTCTAACCTGTTGCCTAA [GAGTCCTCTAG_LTGcore_CT_RTGcore_TT] (site GAGTCCTCTAG) (LTG core: CT, RTG core: TT)",1.08
22,"GAGTCCTCTTGGGTTCTAACCTGTTGCCTCC [GAGTCCTCTAG_LTGcore_CT_RTGcore_GG] (site GAGTCCTCTAG) (LTG core: CT, RTG core: GG)",1.21

row,Sequence,recombinant barcode read abundance (log10)
1,"GAGTCCTGCTGGGTTCTAACCTGTTGCCTAG [GAGTCCTCTAG_LTGcore_GC_RTGcore_CT] (site GAGTCCTCTAG) (LTG core: GC, RTG core: CT)",0.0703
2,"GAGTCCTTATGGGTTCTAACCTGTTGCCTTA [GAGTCCTCTAG_LTGcore_TA_RTGcore_TA] (site GAGTCCTCTAG) (LTG core: TA, RTG core: TA)",0.136
3,"GAGTCCTTCTGGGTTCTAACCTGTTGCCTAG [GAGTCCTCTAG_LTGcore_TC_RTGcore_CT] (site GAGTCCTCTAG) (LTG core: TC, RTG core: CT)",0.0148
4,"GAGTCCTTCTGGGTTCTAACCTGTTGCCTGA [GAGTCCTCTAG_LTGcore_TC_RTGcore_TC] (site GAGTCCTCTAG) (LTG core: TC, RTG core: TC)",0.0603
5,"GAGTCCTTGTGGGTTCTAACCTGTTGCCTCA [GAGTCCTCTAG_LTGcore_TG_RTGcore_TG] (site GAGTCCTCTAG) (LTG core: TG, RTG core: TG)",0.235
6,"GCGCGACAATGGGTTCTAACCTGTTGCTTTT [GCGCGACCTAA_LTGcore_AA_RTGcore_AA] (site GCGCGACCTAA) (LTG core: AA, RTG core: AA)",0.188
7,"GCGCGACCATGGGTTCTAACCTGTTGCTTTG [GCGCGACCTAA_LTGcore_CA_RTGcore_CA] (site GCGCGACCTAA) (LTG core: CA, RTG core: CA)",0.125
8,"GCGCGACCCTGGGTTCTAACCTGTTGCTTGG [GCGCGACCTAA_LTGcore_CC_RTGcore_CC] (site GCGCGACCTAA) (LTG core: CC, RTG core: CC)",0.0343
9,"GCGCGACCTTGGGTTCTAACCTGTTGCTTAA [GCGCGACCTAA_LTGcore_CT_RTGcore_TT] (site GCGCGACCTAA) (LTG core: CT, RTG core: TT)",0.166
10,"GCGCGACCTTGGGTTCTAACCTGTTGCTTAT [GCGCGACCTAA_LTGcore_CT_RTGcore_AT] (site GCGCGACCTAA) (LTG core: CT, RTG core: AT)",0.103
11,"GCGCGACCTTGGGTTCTAACCTGTTGCTTCA [GCGCGACCTAA_LTGcore_CT_RTGcore_TG] (site GCGCGACCTAA) (LTG core: CT, RTG core: TG)",0.481
12,"GCGCGACCTTGGGTTCTAACCTGTTGCTTCG [GCGCGACCTAA_LTGcore_CT_RTGcore_CG] (site GCGCGACCTAA) (LTG core: CT, RTG core: CG)",0.116
13,"GCGCGACCTTGGGTTCTAACCTGTTGCTTTT [GCGCGACCTAA_LTGcore_CT_RTGcore_AA] (site GCGCGACCTAA) (LTG core: CT, RTG core: AA)",0.0792
14,"GCGCGACTCTGGGTTCTAACCTGTTGCTTAG [GCGCGACCTAA_LTGcore_TC_RTGcore_CT] (site GCGCGACCTAA) (LTG core: TC, RTG core: CT)",0
15,"GCGCGACTGTGGGTTCTAACCTGTTGCTTCA [GCGCGACCTAA_LTGcore_TG_RTGcore_TG] (site GCGCGACCTAA) (LTG core: TG, RTG core: TG)",0.0758
16,"GCGCGACTTTGGGTTCTAACCTGTTGCTTAG [GCGCGACCTAA_LTGcore_TT_RTGcore_CT] (site GCGCGACCTAA) (LTG core: TT, RTG core: CT)",0.109
17,"GCGGGACATTGGGTTCTAACCTGTTGCCTAG [GCGGGACCTAG_LTGcore_AT_RTGcore_CT] (site GCGGGACCTAG) (LTG core: AT, RTG core: CT)",0.17
18,"GCGGGACCATGGGTTCTAACCTGTTGCCTTG [GCGGGACCTAG_LTGcore_CA_RTGcore_CA] (site GCGGGACCTAG) (LTG core: CA, RTG core: CA)",0.182
19,"GCGGGACCCTGGGTTCTAACCTGTTGCCTAG [GCGGGACCTAG_LTGcore_CC_RTGcore_CT] (site GCGGGACCTAG) (LTG core: CC, RTG core: CT)",1.21
20,"GCGGGACCGTGGGTTCTAACCTGTTGCCTAG [GCGGGACCTAG_LTGcore_CG_RTGcore_CT] (site GCGGGACCTAG) (LTG core: CG, RTG core: CT)",0.76
21,"GCGGGACCTTGGGTTCTAACCTGTTGCCTGC [GCGGGACCTAG_LTGcore_CT_RTGcore_GC] (site GCGGGACCTAG) (LTG core: CT, RTG core: GC)",1.08
